Results: EP2918282A1, “Pharmaceutical composition for the treatment of virus diseases, such as flu” (OOO "CytoNIR", priority 2014, dated 2015)

System: Grippevirus A/Vladivostok/2/09 (H1N1)
Test: Survival of mice infected with a lethal dose of influenza virus, peroral treatment for 5 days
Assay type: in vivo, Mäuse
Conditions: for To-des-fälle / Überleben-de Mäuse / MLD, Tage (mittlere Lebensdauer innerhalb der Beobachtungsfrist) / Sterblichkeit % / MLD-Erhöhung, Tage / Schutzkennzahl, %: Tamiflu 30 mg/kg; for MLD-Erhöhung, Tage / Schutzkennzahl, %: versus Placebo
Text: Die Wirksamkeit des Mittels wurde an einem Modell der Überlebensfähigkeit von angesteckten Versuchstieren geprüft. Die Versuchstiere wurden mit einer tödlichen Dosis des Grippevirus A/Vladivostok/2/09 (H1N1) angesteckt. Während der Forschung wurde das erfindungsgemäße Mittel 5 Tage lang peroral verabreicht.
Als Versuchstiere wurden weiße männliche Auszucht-Mäuse mit einem Körpergewicht von 16 - 18 g aus der Aufzuchtstation Rappolovo der Russischen Akademie der medizinischen Wissenschaften verwendet. Vor der Prüfung wurden die Versuchstiere einer Quarantäne in einem Vivarium im Laufe einer Woche unterzogen. Die Versuchstiere wurden unter genormten Klima-Bedingungen mit ausgewogener Fütterung gehalten. Jede Gruppe enthielt je 30 Versuchstiere.
Um eine versuchsmäßige Grippe-Infektion zu simulieren, wurde ein bestimmter Virusstamm eingesetzt. Die Versuchstiere wurden mit dem A/Vladivostok/2/09 (H1N1)-Virus in Mengen von 1 und 10 DL50 intranasal angesteckt.
Die Behandlung der angesteckten Mäuse wurde 24 Stunden nach der Ansteckung begonnen. Die Präparate wurden intragastrisch mittels einer Sonde verabreicht. Bei diesen Präparaten handelte es sich um eine Lösung in einer physiologischen Kochsalzlösung. Die Dosis des Arzneimittels wurde pro ein kg des Körpergewichts des Tieres berechnet. Die Behandlung wurde im Laufe von 5 Tagen vorgenommen. Die Wirksamkeit des Mittels wurde anhand der Überlebensraten der Tiere am 21. Tag nach der Ansteckung beurteilt.
Die erste Gruppe der Versuchstiere erhielt eine Lösung von Glutamyltryptophan und Natriumsalz der Glycyrrhizinsäure (nachfolgend GTGS); die zweite Gruppe der Tiere erhielt ein Präparat Tamiflu (Handelsnahme des Präparats Oseltamyvir) in der Dosis von 30 mg/kg; die dritte Gruppe der Tiere erhielt eine physiologische Kochsalzlösung (Placebo).

[1] = Virus-Dosis 1 (DL50), 15 animals per group, peroral day 1 to 5 after infection
[2] = Virus-Dosis 1 (DL50), peroral day 1 to 5 after infection
[3] = Virus-Dosis 10 (DL50), 15 animals per group, peroral day 1 to 5 after infection
[4] = Virus-Dosis 10 (DL50), peroral day 1 to 5 after infection
[5] = Virus-Dosis Gesamtdosis (both virus doses pooled), 30 animals, peroral day 1 to 5 after infection
[6] = Virus-Dosis Gesamtdosis (both virus doses pooled), peroral day 1 to 5 after infection
[7] = Virus-Dosis Gesamtdosis (both virus doses pooled)

CCOC(=O)C1=C[C@@H](OC(CC)CC)[C@H](NC(C)=O)[C@@H](N)C1 [Tamiflu, Oseltamyvir]
To-des-fälle [1]: 6
Überleben-de Mäuse [1]: 9
MLD, Tage (mittlere Lebensdauer innerhalb der Beobachtungsfrist) [2]: 11,7 Tage
Sterblichkeit % [2]: 40,0%
MLD-Erhöhung, Tage [2]: 1,1 Tage
Schutzkennzahl, % [2]: 25,0%
To-des-fälle [3]: 12
Überleben-de Mäuse [3]: 3
MLD, Tage (mittlere Lebensdauer innerhalb der Beobachtungsfrist) [4]: 9,0 Tage
Sterblichkeit % [4]: 80,0%
MLD-Erhöhung, Tage [4]: 1,9 Tage
Schutzkennzahl, % [4]: 14,3%
To-des-fälle [5]: 18
Überleben-de Mäuse [5]: 12
MLD, Tage (mittlere Lebensdauer innerhalb der Beobachtungsfrist) [6]: 10,4 Tage
Sterblichkeit % [6]: 60,0%
MLD-Erhöhung, Tage [7]: 1,5 Tage
Schutzkennzahl, % [7]: 18,2%
Todesfälle (virus dose 10 DL50, 30 mg/kg): 80%
